Read-outs that look alike come from different tables or passages of the source.
Experiments:
[1] = test system: cytochrome c release in A549 cells; experiment: Cytochrome c in cytosol fractions, western blotting; format: cell-based; conditions: for Level of cytochrome c in cytosol: 24-hour treatment; for Cytochrome c release with PG in medium: 24 hours, with PG versus without PG
Excerpt: (§1) PRELID3b and PRELID1 are PRELI proteins. These proteins and TRIAP1 locate within the inter membrane space responsible for the regulation of phospholipid metabolism. Therefore, a cardiolipin probe is used to measure levels of mitochondrial cardiolipin after drug treatment. […] A decreased level of cardiolipin in PRELI or TRIAP1 depleted cells appears to accelerate the release of cytochrome c, rendering cells vulnerable to apoptosis. […] Cardiolipin is synthesized by a series of steps with phosphatidylglycerol (PG) as the precursor of last step catalyzing by cardiolipin synthase.

NCI-H1650 cells = experiment: Cytotoxicity in NCI-H1650 cells; format: cell-based; conditions: Homo sapiens
PRELID3b-TRIAP1-MBP = biological target: T1, PRELID3b-TRIAP1-MBP (Homo sapiens, UniProt Q9Y3B1); experiment: Biolayer interferometry with his tag PRELID3b-TRIAP1-MBP; format: binding; conditions: for Kd: steady-state analysis, 1:1
T1 construct: made in house
Excerpt: To validate the docking analysis, biolayer interferometry (BLI) was employed to measure the interaction between PRELID3b and CK or CKD-4. The recombinant protein was purified by co-expression of PRELID3b with a hexa-histidine tag and the p53 regulated protein, TRIAP1 conjugated with maltose binding protein (MBP). The reported crystal structure of RELID3b is in complex with TRIAP1 and they form as a swapped dimer. PRELID3b is intrinsically unstable in the absence of TRIAP1 and easily degraded by mitochondrial protease. Maltose binding protein (MBP) is a necessary component to improve the solubility of the whole protein complex.
(§2) The sensor used is coated with Ni NTA so that proteins with the hexa-histidine tag could be immobilized on the sensor. After immobilization with protein, the sensor was incubated with the compounds at different concentrations in an ascending order. Both the stoichiometry of CK or CKD-4 with PRELID3b is in a 1:1 ratio but the kinetic modes for the two cases are different. […] The result is consistent with the docking analysis showing that the interaction between CKD-4 and PRELID3b is stronger than with CK.

PRELID1 [2] = biological target: T2, PRELID1 (Homo sapiens, UniProt Q9Y255); experiment: Proteome integral solubility alteration (PISA) in cells; format: cell-based; conditions: in cell
T2 construct: endogenous in cells; host or cells: A549
Excerpt: Two label free chemical proteomics, proteome integral […] alteration assay (PISA) and ProtargetMiner (PTM) are alternative strategies to study CK and CKD-4. PISA is a turbo-charged method development of thermal proteome profiling (TPP) which based on the principle that ligand induced stability of proteins is observed upon a temperature increase. PTM is used to contrast the proteome signature of CK and CKD-4 against the PTM database to reveal their mode of action. FIGS. 9A and 9B provide an overview of the PISA results in cells with CK and CKD-4, where data is shown as a volcano plot with the X-axis as log2 ΔSm of drug over DMSO treatment and the Y-axis as log 10 p-value. In FIGS. 10 and 11 the PTM result of CK and CKD-4 in cells are compared to 9 other anti-cancer drugs in A549 cells in the database and is plotted for OPLS-DA analysis.
(§3) Most probable target candidate proteins are ranked in PISA based on the absolute value of log2 ΔSm of drug relative to DMSO treatment and PTM ranking are based on the log2 fold change of drug over DMSO treatment. The rankings of two experiments are summed to provide a list of candidate drug targets.

NCI-H460 xenografts = NCI-H460 xenografts in nude mice; format: in vivo; conditions: 5 mg/kg intravenous once every two days; for Tumor volume: versus solvent control
A549 cells [3] = format: in vitro ADME; conditions: human, 10 μM
Excerpt: To explore the stability of CKD-4, the amount of CK in CKD-4 treated A549 cells was also quantified.

[4] = test system: CCD-19Lu lung normal fibroblast; experiment: Cytotoxicity in lung normal fibroblast CCD-19Lu; format: cell-based; conditions: Homo sapiens
PRELID3b = biological target: T3, PRELID3b (Homo sapiens, UniProt Q9Y3B1); experiment: Cellular thermal shift assay by western blotting, PRELID3b; format: cell-based; conditions: A549 cells, one hour
T3 construct: endogenous in cells; host or cells: A549
Experimental: A549 cells were treated with 50 μM of CK or 15 uM of CKD-4 for one hour, where eight lysate aliquots were heated to indicated temperature.
as §3

NCI-H460 cells [5] = test system: NCI-H460 cells
[6] = test system: lung cancer patient derived organoid; experiment: Lung cancer patient derived organoid viability, CellTiterGlo; format: cell-based; conditions: 72 hours
Experimental: (§4) The effect of CK and CKD-4 on cell apoptosis and cell death is indicated by A549 cells treated with 60 μM of CK and 20 μM of CKD-4 for 48 hours that are analyzed by flow cytometry. […] Angiogenesis is another hallmark of cancer which plays an important role in metastasis and tumor growth. […] Cancer stem cells, owing to their ability of self-renewal, have become the major reason for relapse of tumor and poor prognosis. The efficacy of CKD-4 in lung cancer patient derived organoid is indicated using CellTiterGlo assay, where three state of the art clinical anti-cancer drugs, carboplatin, cisplatin, and paclitaxel are a positive control. The dosage of these three drugs is sufficient to trigger a 30% inhibition of cell viability. FIG. 6 and FIG. 7 indicated less than 30% suppression of cell viability is observed with treatment of 20 μM CKD-4.

NCI-H460 cells [7] = experiment: MTT cytotoxicity in NCI-H460 cells
[8] = test system: cardiolipin in A549 cells; experiment: Mitochondrial cardiolipin quantification with cardiolipin probe; format: cell-based; conditions: 24-hour treatment
Experimental: FIG. 15A is a bar chart of the CK and CKD-4 induced apoptosis by quantification of cardiolipin in mitochondrial after treatment with CK or CKD-4 for 24 hours in A549 cells as mean±SD, **, P≤0.01, *, P≤0.05.
as §1

A549 cells [9] = experiment: Cell viability with phosphatidylglycerol (PG) supplement, NBB assay; format: cell-based; conditions: 24 hours, PG supplemented DMEM versus DMEM
Experimental: FIG. 15C is a bar chart of the cell viability of A549 after treatment with 100 μM of CK or 12.5 μM of CKD-4 for 24 hours in DMEM or phosphatidylglycerol (PG) supplemented DMEM as mean±SD, ***P≤0.001.
as §1

MBP = MBP (Escherichia coli, UniProt P0AEX9); experiment: Biolayer interferometry with his tag MBP (control); format: binding; conditions: various concentrations
Experimental: as §2

PRELID1 [10] = biological target: T2, PRELID1; experiment: Cellular thermal shift assay by western blotting, PRELID1; format: cell-based; conditions: A549 cells, one hour
Experimental: A549 cells were treated with 50 μM of CK or 15 μM of CKD-4 for one hour, where eight lysate aliquots were heated to indicated temperature.
as §3

A549 cells [11] = experiment: Cytotoxicity in A549 cells; format: cell-based; conditions: Homo sapiens
A549 cells [12] = experiment: Apoptosis by flow cytometry (Annexin V-FITC / propidium iodide); format: cell-based; conditions: 48 hours
Experimental: as §4

MS 1 cells = experiment: Tube formation (angiogenesis) on Matrigel; format: cell-based; conditions: 4 hours
Experimental: as §4

HepG2 cells = experiment: MTT cytotoxicity in HepG2 cells; format: cell-based; conditions: Homo sapiens; HepG2 liver cancer, 72 hours
SW480 cells = experiment: MTT cytotoxicity in SW480 cells; format: cell-based; conditions: Homo sapiens; SW480 colon cancer, 72 hours
Hela cells = experiment: MTT cytotoxicity in Hela cells; format: cell-based; conditions: Homo sapiens; Hela cervical cancer, 72 hours
MHCC97-L cells = experiment: MTT cytotoxicity in MHCC97-L cells; format: cell-based; conditions: MHCC97L; MHCC97-L liver cancer, 72 hours
Solubility = format: physicochemical; conditions: even in dimethyl sulfoxide (DMSO)
[13] = NCI-H1650, 24 h, read-out: IC50 24 h
[14] = NCI-H1650, 48 h, read-out: IC50 48 h
[15] = NCI-H1650, 72 h, read-out: IC50 72 h
[16] = Homo sapiens, NCI-H460, 24 h, read-out: IC50 24 h
[17] = Homo sapiens, NCI-H460, 48 h, read-out: Cytotoxicity IC50
[18] = Homo sapiens, NCI-H460, 72 h, read-out: IC50 72 h
[19] = A549, 24 h, read-out: IC50 24 h
[20] = A549, 48 h, read-out: IC50 48 h
[21] = A549, 72 h, read-out: IC50 72 h

T2 sequence (Q9Y255 whole entry): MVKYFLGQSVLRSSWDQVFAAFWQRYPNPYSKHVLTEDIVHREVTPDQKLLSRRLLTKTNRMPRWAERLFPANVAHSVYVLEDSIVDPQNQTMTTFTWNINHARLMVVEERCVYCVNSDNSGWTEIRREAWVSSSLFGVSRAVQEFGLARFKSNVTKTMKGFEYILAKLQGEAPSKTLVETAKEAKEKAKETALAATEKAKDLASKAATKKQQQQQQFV
T2 sequence (O43715 whole entry partner): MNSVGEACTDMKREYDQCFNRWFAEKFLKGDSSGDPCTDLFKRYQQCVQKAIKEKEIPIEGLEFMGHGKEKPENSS
T1 sequence (Q9Y3B1 whole entry): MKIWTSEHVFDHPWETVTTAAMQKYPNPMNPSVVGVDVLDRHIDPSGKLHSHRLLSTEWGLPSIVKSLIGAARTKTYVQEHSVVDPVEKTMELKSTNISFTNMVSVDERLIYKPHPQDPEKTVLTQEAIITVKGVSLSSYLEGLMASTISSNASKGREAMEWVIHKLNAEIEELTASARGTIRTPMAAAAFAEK
T3 sequence (Q9Y3B1 whole entry): as above
T3 sequence (O43715 whole entry partner): as the sequence (O43715 whole entry partner) above

Row | SMILES | IC50 (NCI-H1650 cells; [13]) [µM] | IC50 (NCI-H1650 cells; [14]) [µM] | IC50 (NCI-H1650 cells; [15]) [µM] | Kinetic mode (on/off rate) (PRELID3b-TRIAP1-MBP) | Kd (PRELID3b-TRIAP1-MBP) [µM] | PRELID1 stability in PISA (PRELID1 [2]) | Body weight (NCI-H460 xenografts) | Tumor volume (NCI-H460 xenografts) | IC50 ([4]; 24 h, read-out: IC50 24 h) [µM] | IC50 ([4]; 48 h, read-out: IC50 48 h) [µM] | IC50 ([4]; 72 h, read-out: IC50 72 h) [µM] | IC50 (NCI-H460 cells [7]; [16]) [µM] | IC50 (NCI-H460 cells [7]; [17]) [µM] | IC50 (NCI-H460 cells [7]; [18]) [µM] | Amount of mitochondrial cardiolipin [8] | Response with MBP (MBP) | IC50 (A549 cells [11]; [19]) [µM] | IC50 (A549 cells [11]; [20]) [µM] | IC50 (A549 cells [11]; [21]) [µM] | also measured
1 | COc1ccc(C2OCC3OC(OC(C)(CCC=C(C)C)C4CCC5(C)C4C(O)CC4C6(C)CCC(O)C(C)(C)C6CCC45C)C(O)C(O)C3O2)cc1 (centres unmarked) [CKD-4] | 43.7 ± 4.4 | 25.1 ± 1.5 | 20.3 ± 1.1 | slower | 5.3 | stabilized | No significant change in body weight | significant tumor volume inhibition | 57.5 ± 0.6 | 25.9 ± 4.4 | 17.9 ± 2.8 | 23.3 ± 1.4 | 16.5 | 15.4 ± 0.1 | decreased significantly | no does-dependent response | 30.8 ± 3.7 | 23.9 ± 0.9 | 17.4 ± 1.2 | Level of cytochrome c in cytosol ([1]; 15 μM): dramatically enhanced; Cytochrome c release with PG in medium ([1]; 15 μM): Reduced level of cytochrome c was released; Kd smaller than Kd of CK (PRELID3b-TRIAP1-MBP): ~7 fold; Amount of CK found in CKD-4 treated cells (A549 cells [3]; 4 h): 1.33 % of total amount of CKD-4; Amount of CK found in CKD-4 treated cells (A549 cells [3]; 24 h): 1.05 % of total amount of CKD-4; Thermal stability of PRELID3b (CETSA) (PRELID3b; 15 uM): stabilization; Cytotoxic potency in comparison with CK (NCI-H460 cells [5]): three-fold more potent; Suppression of cell viability ([6]; 20 μM, CellTiterGlo): less than 30%; Growth of patient derived organoid ([6]; 5, 10, 20, 35 and 50 μM): significantly inhibits the growth of patient derived organoid in a dose dependent manner; Cell viability with supplement of PG (A549 cells [9]; A549, 12.5 μM): almost two-fold restored; Thermal stability of PRELID1 (CETSA) (PRELID1 [10]; 15 μM): stabilization; Percentage of apoptotic cells (A549 cells [12]; A549, 20 μM): significant increase in the percentage of apoptotic cells; Formation of tube (MS 1 cells; 15 μM): inhibition is more obvious
2 | CC(C)=CCC[C@](C)(OC1O[C@H](CO)[C@@H](O)[C@H](O)[C@H]1O)C1CC[C@]2(C)C1[C@H](O)CC1[C@@]3(C)CC[C@H](O)C(C)(C)C3CC[C@]12C (stereo partly drawn) [CK, 20-O-β-(D-glucopyranosyl)-20(S)-protopanaxadiol, reference compound] | 80.7 ± 3.7 | 71.3 ± 7.1 | 59.3 ± 2.8 | fast on/off rate | 55.7 | stabilized | No significant change in body weight | almost no difference | 73.6 ± 3.4 | 63.1 ± 2.7 | 42.3 ± 1.5 | 64.7 ± 9.3 | 53.4 ± 2.4 | 40.5 ± 0.9 | decreased significantly | no does-dependent response | 67.1 ± 4.6 | 64 ± 3.3 | 59.1 ± 3.4 | Level of cytochrome c in cytosol ([1]; 50 μM): dramatically enhanced; Cytochrome c release with PG in medium ([1]; 50 μM): not observed; IC50 (HepG2 cells): 43.6 ± 1.6 µM; Thermal stability of PRELID3b (CETSA) (PRELID3b; 50 μM): stabilization; IC50 (NCI-H460 cells [7]; Homo sapiens, NCI-H460, 72 h, read-out: Cytotoxicity IC50): 45.1 ± 0.4 µM; Cell viability with supplement of PG (A549 cells [9]; A549, 100 μM): almost two-fold restored; IC50 (SW480 cells): 46.2 ± 2.1 µM; Thermal stability of PRELID1 (CETSA) (PRELID1 [10]; 50 μM): stabilization; IC50 (Hela cells): 36.2 ± 1.2 µM; Percentage of apoptotic cells (A549 cells [12]; A549, 60 μM): significant increase in the percentage of apoptotic cells; Formation of tube (MS 1 cells; 40 μM): inhibited; IC50 (MHCC97-L cells): 49.8 ± 0.3 µM
3 | CC(=O)OCC1OC(OC(C)(CCC=C(C)C)C2CCC3(C)C2C(OC(C)=O)CC2C4(C)CCC(OC(C)=O)C(C)(C)C4CCC23C)C(OC(C)=O)C(OC(C)=O)C1OC(C)=O (centres unmarked) [CKD-1] | – | – | – | – | – | – | – | – | – | – | – | – | – | – | – | – | – | – | – | Solubility (Solubility): poor solubility; IC50 (NCI-H460 cells [7]; read-out: Cytotoxicity IC50, NCI-H460 cells, 48 h (Table 2)): > 100 µM

Reference: patent US20230381213A1, “SYNTHESIS AND USES OF GINSENOSIDE COMPOUND K DERIVATIVES” (The University of Hong Kong, priority 2022, published 2023)
